From patent publication US7384954B2 (priority 2003, dated 2008)

Target: α7 nAChR subtype (Rattus norvegicus, UniProt Q05941)
Assay type: binding
Settings: read-out: KD of radioligand from saturation curves

Sequence of α7 nAChR subtype (Q05941 23-502 limits assumed): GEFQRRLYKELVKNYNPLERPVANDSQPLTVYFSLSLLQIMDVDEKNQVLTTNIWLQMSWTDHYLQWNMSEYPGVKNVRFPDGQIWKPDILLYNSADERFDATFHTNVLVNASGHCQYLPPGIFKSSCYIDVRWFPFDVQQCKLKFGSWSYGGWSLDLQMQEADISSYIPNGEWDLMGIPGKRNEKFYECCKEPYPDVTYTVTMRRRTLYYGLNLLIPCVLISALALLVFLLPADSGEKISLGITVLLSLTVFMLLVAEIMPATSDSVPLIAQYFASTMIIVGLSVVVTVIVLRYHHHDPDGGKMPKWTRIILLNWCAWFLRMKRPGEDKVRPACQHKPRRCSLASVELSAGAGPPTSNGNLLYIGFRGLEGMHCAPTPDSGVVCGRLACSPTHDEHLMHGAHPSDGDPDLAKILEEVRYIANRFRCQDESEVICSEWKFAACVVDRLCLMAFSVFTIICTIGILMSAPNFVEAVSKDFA

125I-α-Bungarotoxin [[^125I]-α-BTX] was tested, and the Kd was 1.67 nM.
